Data reported in ChEMBL document CHEMBL1629455, “Discovery of a novel class of biphenyl pyrazole sodium channel blockers for treatment of neuropathic pain” (Bioorg Med Chem Lett, 2010).
pIC50, pKi: −log10 of the molar value.

What was measured:
[1] = target: T1, Sodium channel protein type 9 subunit alpha (Homo sapiens, UniProt Q15858); test: Inhibition of human Nav1.7 by VIPR assay
Target sequence in this assay (Q15858 whole entry): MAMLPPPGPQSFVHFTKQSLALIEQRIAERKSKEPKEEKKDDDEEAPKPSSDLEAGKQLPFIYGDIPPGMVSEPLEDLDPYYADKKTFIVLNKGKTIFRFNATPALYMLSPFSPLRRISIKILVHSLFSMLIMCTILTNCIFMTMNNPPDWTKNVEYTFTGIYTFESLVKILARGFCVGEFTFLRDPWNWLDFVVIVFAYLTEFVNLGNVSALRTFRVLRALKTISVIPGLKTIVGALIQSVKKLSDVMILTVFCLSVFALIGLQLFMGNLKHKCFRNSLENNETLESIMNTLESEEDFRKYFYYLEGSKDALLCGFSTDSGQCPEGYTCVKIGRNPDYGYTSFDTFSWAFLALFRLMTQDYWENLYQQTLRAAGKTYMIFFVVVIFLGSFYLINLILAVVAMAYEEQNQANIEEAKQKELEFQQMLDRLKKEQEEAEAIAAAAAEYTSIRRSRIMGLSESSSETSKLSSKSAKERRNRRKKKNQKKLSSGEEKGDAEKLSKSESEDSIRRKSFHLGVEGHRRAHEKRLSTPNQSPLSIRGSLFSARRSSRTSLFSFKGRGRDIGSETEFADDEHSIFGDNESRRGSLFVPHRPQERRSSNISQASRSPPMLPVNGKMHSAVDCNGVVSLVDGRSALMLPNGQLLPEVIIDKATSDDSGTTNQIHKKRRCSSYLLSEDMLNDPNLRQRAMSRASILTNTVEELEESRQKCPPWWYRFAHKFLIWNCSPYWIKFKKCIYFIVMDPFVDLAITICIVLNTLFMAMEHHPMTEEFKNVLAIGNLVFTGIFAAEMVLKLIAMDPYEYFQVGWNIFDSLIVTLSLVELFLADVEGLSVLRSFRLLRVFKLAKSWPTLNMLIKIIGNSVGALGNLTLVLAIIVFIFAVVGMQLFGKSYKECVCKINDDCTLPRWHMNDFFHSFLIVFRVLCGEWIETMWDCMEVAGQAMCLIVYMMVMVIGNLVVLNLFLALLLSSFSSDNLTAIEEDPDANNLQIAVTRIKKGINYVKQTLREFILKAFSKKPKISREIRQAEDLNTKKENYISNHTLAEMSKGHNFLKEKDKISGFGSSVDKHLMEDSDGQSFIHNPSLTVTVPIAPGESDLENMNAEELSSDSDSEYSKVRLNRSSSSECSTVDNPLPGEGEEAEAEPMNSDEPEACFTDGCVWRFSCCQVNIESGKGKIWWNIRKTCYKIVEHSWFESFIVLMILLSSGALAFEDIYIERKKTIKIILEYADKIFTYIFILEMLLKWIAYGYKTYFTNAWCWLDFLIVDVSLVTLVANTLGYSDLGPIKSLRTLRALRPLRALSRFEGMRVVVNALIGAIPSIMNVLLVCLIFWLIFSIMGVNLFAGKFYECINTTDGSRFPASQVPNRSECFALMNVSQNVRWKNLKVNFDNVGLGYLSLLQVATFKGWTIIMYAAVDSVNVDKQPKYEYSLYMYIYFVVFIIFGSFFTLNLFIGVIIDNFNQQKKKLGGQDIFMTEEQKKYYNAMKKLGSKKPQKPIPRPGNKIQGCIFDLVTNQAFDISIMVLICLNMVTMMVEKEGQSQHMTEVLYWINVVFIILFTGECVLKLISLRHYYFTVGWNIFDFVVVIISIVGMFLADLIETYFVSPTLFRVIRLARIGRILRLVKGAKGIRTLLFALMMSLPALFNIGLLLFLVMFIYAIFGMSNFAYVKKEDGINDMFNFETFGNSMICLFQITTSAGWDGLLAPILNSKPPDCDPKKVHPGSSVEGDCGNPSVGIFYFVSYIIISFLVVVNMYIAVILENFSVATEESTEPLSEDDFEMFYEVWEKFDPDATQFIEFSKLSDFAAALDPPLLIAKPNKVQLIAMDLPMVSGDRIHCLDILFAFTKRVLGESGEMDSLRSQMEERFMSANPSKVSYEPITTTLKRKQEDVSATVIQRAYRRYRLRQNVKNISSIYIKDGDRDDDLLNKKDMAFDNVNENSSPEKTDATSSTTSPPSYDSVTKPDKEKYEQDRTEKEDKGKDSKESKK

[2] = target: Sodium channel protein type 10 subunit alpha (Homo sapiens, UniProt Q9Y5Y9); test: Inhibition of human Nav1.8 by VIPR assay
Rattus norvegicus [3] = test: Antiallodynic activity in rat spinal nerve ligation model of neuropathic pain assessed as reversal of allodynia at 10 mg/kg, po after 2 hrs; type: functional
Rattus norvegicus [4] = test: Antiallodynic activity in rat spinal nerve ligation model of neuropathic pain assessed as reversal of allodynia at 10 mg/kg, po after 4 hrs; type: functional
hERG (KCNH2) = hERG (KCNH2) (Homo sapiens, UniProt Q12809); test: Inhibition of MK-0499 binding to human ERG at 10 uM; conditions: probe MK-0499
[5] = target: T1, Sodium channel protein type 9 subunit alpha; test: Inhibition of human Nav1.7 at 10 uM by VIPR assay
Target sequence in this assay (Q15858 whole entry, looked up): as the sequence (Q15858 whole entry) above

Chain of hERG (KCNH2) (Q12809 whole entry): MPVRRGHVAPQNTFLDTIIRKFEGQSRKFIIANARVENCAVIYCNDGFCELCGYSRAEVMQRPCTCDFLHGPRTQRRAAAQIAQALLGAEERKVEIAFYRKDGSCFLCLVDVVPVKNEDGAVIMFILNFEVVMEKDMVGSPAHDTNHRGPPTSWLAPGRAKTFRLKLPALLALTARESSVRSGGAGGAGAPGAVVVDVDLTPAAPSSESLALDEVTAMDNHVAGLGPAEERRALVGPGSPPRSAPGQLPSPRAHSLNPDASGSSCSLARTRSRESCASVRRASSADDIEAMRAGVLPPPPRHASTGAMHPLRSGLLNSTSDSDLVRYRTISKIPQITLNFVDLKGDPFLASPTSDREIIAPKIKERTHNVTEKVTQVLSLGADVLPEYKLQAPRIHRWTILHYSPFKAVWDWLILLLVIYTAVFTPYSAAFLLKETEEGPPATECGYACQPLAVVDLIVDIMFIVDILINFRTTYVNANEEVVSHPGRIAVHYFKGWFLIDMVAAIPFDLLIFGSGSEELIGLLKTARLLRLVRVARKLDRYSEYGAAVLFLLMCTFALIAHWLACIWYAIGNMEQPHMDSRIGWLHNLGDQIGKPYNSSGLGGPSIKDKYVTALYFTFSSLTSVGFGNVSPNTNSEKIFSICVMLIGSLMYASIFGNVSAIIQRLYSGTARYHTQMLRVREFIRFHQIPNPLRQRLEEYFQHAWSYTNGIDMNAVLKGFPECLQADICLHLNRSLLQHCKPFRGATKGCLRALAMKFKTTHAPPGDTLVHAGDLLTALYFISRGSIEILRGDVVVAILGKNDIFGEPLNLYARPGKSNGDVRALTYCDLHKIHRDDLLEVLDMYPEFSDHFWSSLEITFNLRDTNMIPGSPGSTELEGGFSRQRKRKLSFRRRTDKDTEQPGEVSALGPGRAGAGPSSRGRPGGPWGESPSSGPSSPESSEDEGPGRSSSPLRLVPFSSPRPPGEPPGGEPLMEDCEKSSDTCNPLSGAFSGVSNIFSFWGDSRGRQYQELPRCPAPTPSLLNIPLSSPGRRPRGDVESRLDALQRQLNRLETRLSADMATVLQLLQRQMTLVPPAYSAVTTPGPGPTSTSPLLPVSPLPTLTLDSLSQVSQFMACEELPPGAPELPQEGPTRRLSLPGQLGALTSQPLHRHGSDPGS
Chain of Sodium channel protein type 10 subunit alpha (Q9Y5Y9 whole entry): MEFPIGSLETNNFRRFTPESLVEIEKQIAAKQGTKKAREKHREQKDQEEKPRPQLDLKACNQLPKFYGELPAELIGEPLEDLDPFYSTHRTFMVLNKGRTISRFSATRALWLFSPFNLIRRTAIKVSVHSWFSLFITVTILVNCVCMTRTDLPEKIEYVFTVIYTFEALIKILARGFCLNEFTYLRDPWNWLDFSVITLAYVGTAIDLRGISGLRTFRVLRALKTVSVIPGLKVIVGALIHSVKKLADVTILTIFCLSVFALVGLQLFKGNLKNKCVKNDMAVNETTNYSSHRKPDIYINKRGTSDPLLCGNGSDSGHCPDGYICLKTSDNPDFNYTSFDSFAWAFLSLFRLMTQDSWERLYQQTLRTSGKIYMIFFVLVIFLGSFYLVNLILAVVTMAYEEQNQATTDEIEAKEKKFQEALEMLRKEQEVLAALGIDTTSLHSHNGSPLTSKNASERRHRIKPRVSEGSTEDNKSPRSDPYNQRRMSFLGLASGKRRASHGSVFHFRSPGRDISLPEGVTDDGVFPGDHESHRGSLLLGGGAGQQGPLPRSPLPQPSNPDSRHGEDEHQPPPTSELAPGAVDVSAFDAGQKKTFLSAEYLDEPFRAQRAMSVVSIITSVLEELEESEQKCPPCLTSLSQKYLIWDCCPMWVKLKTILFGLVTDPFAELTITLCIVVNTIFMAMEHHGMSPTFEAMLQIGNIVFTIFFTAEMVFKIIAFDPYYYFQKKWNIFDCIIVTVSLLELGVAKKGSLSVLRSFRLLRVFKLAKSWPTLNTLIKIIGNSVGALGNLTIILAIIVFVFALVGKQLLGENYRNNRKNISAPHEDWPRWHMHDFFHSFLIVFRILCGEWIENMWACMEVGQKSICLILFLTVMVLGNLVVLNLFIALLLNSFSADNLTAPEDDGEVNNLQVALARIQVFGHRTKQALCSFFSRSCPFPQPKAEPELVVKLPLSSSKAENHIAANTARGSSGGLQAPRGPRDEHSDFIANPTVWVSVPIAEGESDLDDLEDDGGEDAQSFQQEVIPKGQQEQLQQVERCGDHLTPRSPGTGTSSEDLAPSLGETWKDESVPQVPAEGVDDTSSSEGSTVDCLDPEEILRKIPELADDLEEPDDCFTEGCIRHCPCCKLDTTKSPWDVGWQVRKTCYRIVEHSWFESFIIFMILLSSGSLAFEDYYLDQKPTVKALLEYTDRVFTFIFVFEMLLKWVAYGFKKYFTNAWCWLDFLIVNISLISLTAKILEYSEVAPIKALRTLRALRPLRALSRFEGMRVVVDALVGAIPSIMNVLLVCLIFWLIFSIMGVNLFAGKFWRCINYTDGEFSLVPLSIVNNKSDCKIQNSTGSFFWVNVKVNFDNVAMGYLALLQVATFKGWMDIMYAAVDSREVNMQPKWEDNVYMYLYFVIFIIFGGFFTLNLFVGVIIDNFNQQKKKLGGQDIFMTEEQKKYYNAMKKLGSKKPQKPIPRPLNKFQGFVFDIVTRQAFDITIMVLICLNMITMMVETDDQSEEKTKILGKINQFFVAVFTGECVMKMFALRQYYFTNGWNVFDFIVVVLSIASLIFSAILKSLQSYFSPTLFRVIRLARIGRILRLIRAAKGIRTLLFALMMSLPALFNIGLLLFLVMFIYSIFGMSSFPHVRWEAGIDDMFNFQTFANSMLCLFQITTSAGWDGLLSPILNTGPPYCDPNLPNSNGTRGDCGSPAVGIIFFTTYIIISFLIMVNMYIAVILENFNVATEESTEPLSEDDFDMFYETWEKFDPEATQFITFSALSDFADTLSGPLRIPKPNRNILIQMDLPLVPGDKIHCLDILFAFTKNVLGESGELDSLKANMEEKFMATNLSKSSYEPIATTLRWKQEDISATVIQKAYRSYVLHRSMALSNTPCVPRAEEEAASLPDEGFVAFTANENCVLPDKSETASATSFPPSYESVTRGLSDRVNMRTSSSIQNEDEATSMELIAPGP

| SMILES | pIC50 [1] | pIC50 [2] | pKi [1] | inhibition [5] | Activity (Rattus norvegicus [3]) | Activity (Rattus norvegicus [4]) | inhibition at 10 µM (hERG (KCNH2)) |
| --- | --- | --- | --- | --- | --- | --- | --- |
| NC(=O)c1cc(C(N)=O)n(-c2cccc(-c3cc(F)ccc3OCC(F)(F)C(F)(F)F)c2)n1 | 7.34 | 6.83 |  |  | 25% | 9% |  |
| Cc1cc(C(N)=O)nn1-c1cccc(-c2ccccc2OC(F)(F)F)c1 |  |  |  |  | 33% | 11% | 69% |
| CCNC(=O)c1cc(C(=O)NCC)n(-c2cccc(-c3ccccc3OC(F)(F)F)c2)n1 |  |  |  | 1% |  |  | 27% |
| NC(=O)c1cc(C(N)=O)n(-c2cccc(-c3cccc(Cl)c3Cl)c2)n1 | 6.71 |  |  |  | 15% | 7% |  |
| Cc1c(C(N)=O)c(C(N)=O)nn1-c1cccc(-c2ccccc2OC(F)(F)F)c1 | 6.73 |  |  |  | 16% | 8% | 15% |
| NC(=O)c1cc(C(N)=O)n(-c2cccc(-c3ccc(F)cc3OCC(F)(F)C(F)(F)F)c2)n1 | 6.97 |  |  |  | 28% | 8% |  |
| NC(=O)c1cc(C(N)=O)n(-c2cccc(-c3cccc(C(F)(F)F)c3OCC(F)(F)C(F)(F)F)c2)n1 | 6.83 | 6.52 |  |  | 22% | 8% |  |
| NC(=O)c1cn(-c2cccc(-c3ccccc3OC(F)(F)F)c2)nc1C(N)=O | 7.31 |  |  |  | 18% | 8% | 1% |
| CCNC(=O)c1cc(C(N)=O)nn1-c1cccc(-c2ccccc2OC(F)(F)F)c1 | 7.54 |  |  |  |  |  | 20% |

More lines, main results first:

| pIC50 [1] | pIC50 [2] | pKi [1] | inhibition [5] | SMILES | Activity (Rattus norvegicus [3]) | Activity (Rattus norvegicus [4]) | inhibition at 10 µM (hERG (KCNH2)) |
| --- | --- | --- | --- | --- | --- | --- | --- |
|  |  | 6.47 |  | Cc1cc(C(N)=O)nn1-c1cccc(-c2ccc(C(F)(F)F)cc2C(F)(F)F)c1 |  |  |  |
| 8.00 |  |  |  | CCOC(=O)c1cc(C(N)=O)nn1-c1cccc(-c2ccccc2OC(F)(F)F)c1 |  |  | 72% |
| 6.97 | 6.10 |  |  | NC(=O)c1cc(C(N)=O)n(-c2cccc(-c3c(F)cccc3OC(F)(F)F)c2)n1 | 15% | 9% |  |
| 6.32 |  |  |  | NC(=O)c1cc(C(N)=O)n(-c2ccc(F)c(-c3ccccc3OC(F)(F)F)c2)n1 |  |  |  |
| 7.19 | 6.69 |  |  | NC(=O)c1cc(C(N)=O)n(-c2cccc(-c3cccc(OC(F)(F)F)c3OCC(F)(F)C(F)(F)F)c2)n1 | 6% | 3% |  |
| 6.55 | 5.82 |  |  | NC(=O)c1cc(C(N)=O)n(-c2cccc(-c3cccc(OC(F)(F)F)c3F)c2)n1 | 28% | 8% |  |
| 6.94 |  |  |  | NC(=O)c1nn(-c2cccc(-c3ccccc3OC(F)(F)F)c2)c(C(N)=O)c1C(N)=O |  |  | 49% |
| 6.15 |  |  |  | NC(=O)c1cc(C(N)=O)n(-c2cccc(-c3c(C(F)(F)F)cccc3C(F)(F)F)c2)n1 |  |  |  |
| 6.88 | 6.26 |  |  | NC(=O)c1cc(C(N)=O)n(-c2cccc(-c3ccccc3OC(F)(F)F)c2)n1 | 35% | 19% | 21% |
| 6.81 | 6.04 |  |  | NC(=O)c1cc(C(N)=O)n(-c2cccc(-c3ccccc3C(F)(F)F)c2)n1 | 9% | 2% |  |
|  |  | 6.64 |  | NC(=O)c1nc(-c2cccc(-c3ccccc3OC(F)(F)F)c2)cs1 |  |  |  |
| 6.49 | 5.93 |  |  | NC(=O)c1cc(C(N)=O)n(-c2cccc(-c3cc(C(F)(F)F)ccc3OC(F)(F)F)c2)n1 | 29% | 6% |  |
